Test results published in ChEMBL document CHEMBL1150032, “-hydroxy- and -ketoester functionalized thrombin inhibitors” (Bioorg Med Chem Lett, 1992).

Assays:
Prothrombin [1] = target: T1, Prothrombin (Homo sapiens, UniProt P00734); assay: Inhibitory concentration against thrombin when incubated with the compound for 3 min
Prothrombin [2] = target: T1, Prothrombin; assay: Inhibitory concentration against thrombin when incubated with the compound for 3 min in batch 1
[3] = Inhibitory concentration required to double thrombin clotting time in batch 2; assay type: functional, Homo sapiens
Prothrombin [4] = target: T1, Prothrombin; assay: Inhibitory concentration against thrombin when incubated with the compound for 3 min in batch 2
[5] = Inhibitory concentration required to double thrombin clotting time in batch 1; assay type: functional, Homo sapiens
[6] = Inhibitory concentration required to double thrombin clotting time; assay type: functional, Homo sapiens
Prothrombin [7] = target: T1, Prothrombin; assay: Overall Inhibitory constant against thrombin was determined

| SMILES | IC50 (Prothrombin [1]) | IC50 (Prothrombin [2]) | IC50 [3] | IC50 (Prothrombin [4]) | IC50 [5] | IC50 [6] | Ki (Prothrombin [7]) |
| --- | --- | --- | --- | --- | --- | --- | --- |
| COC(=O)C(O)[C@H](CCCCN=C(N)N)NC(=O)[C@@H]1CCCN1C(=O)[C@H](N)Cc1ccccc1 (stereo not given in full) | 48000 nM |  |  |  |  |  |  |
| COC(=O)[C@@H](O)[C@H](CCCCN)NC(=O)[C@@H]1CCCN1C(=O)[C@H](N)Cc1ccccc1 |  | 30500 nM | > 300000 nM | 20200 nM | > 300000 nM |  |  |
| NC(N)=NCCC[C@@H](C=O)NC(=O)[C@@H]1CCCN1C(=O)[C@H](N)Cc1ccccc1 | 49 nM |  |  |  |  | 400 nM |  |
| COC(=O)C(O)(OC)C(CCCCN)NC(=O)[C@@H]1CCCN1C(=O)[C@H](N)Cc1ccccc1 (stereo not given in full) | 32 nM |  |  |  |  | 390 nM | 1.7 nM |
